The test system of the assay is P388 leukemia ip, CD2F1 mice, survival T/C. Put plainly: NCI In Vivo Anticancer Drug Screen. Data for tumor model P388 Leukemia (intraperitoneal) in CD2F1 (CDF1) mice. To be noted: endpoint: median survival time, higher = longer survival. The procedure, abridged: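 Mice carrying the transplanted tumor received test compound or vehicle. Survival was recorded in each group, and the value is the treated-group measurement divided by that of the vehicle-treated control group.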

The mark [1] stands for this setting: dose: 50.0 mg/kg/injection, schedule: Q01DX009 (ip), vehicle: saline with Tween-80.
Where [2] appears, read: dose: 100.0 mg/kg/injection, schedule: Q01DX009 (ip), vehicle: saline with Tween-80.
[3] abbreviates: dose: 60.0 mg/kg/injection, schedule: Q01DX005 (ip), vehicle: saline with Tween-80.
Setting [4] is: dose: 120.0 mg/kg/injection, schedule: Q01DX005 (ip), vehicle: saline with Tween-80.
Where [5] appears, read: dose: 240.0 mg/kg/injection, schedule: Q01DX005 (ip), vehicle: saline with Tween-80.
Where [6] appears, read: dose: 50.0 mg/kg/injection, schedule: Q01DX005 (ip), vehicle: saline with Tween-80.

This note sets out measurements from PubChem BioAssay AID330 (DTP/NCI, 2004).

Where “and” joins values, the source holds several entries; their conditions need not be identical. Identical values can stand only once. Inconclusive results and toxic doses are left out.

`CN(C)C1C(=O)C(C(=O)NCN2CCN(CCO)CC2)=C(O)C2(O)C(=O)C3=C(O)c4c(O)cccc4C(C)(O)C3CC12` (centres undefined): the T/C is, setting by setting: (dose: 25.0 mg/kg/injection, schedule: Q01DX005 (ip), vehicle: saline) 104 % of control; (dose: 50.0 mg/kg/injection, schedule: Q01DX005 (ip), vehicle: saline) 102 % of control; (dose: 100.0 mg/kg/injection, schedule: Q01DX005 (ip), vehicle: saline) 104 % of control; (dose: 200.0 mg/kg/injection, schedule: Q01DX005 (ip), vehicle: saline) 95 % of control.
For the molecule `CCC(=O)c1ccc(O)c(O)c1`, the T/C is, setting by setting: under setting [1], 104 % of control; under setting [2], 105 % of control.
On to `COc1cc2c(c(OC)c1OC)-c1ccc(OC)c(=O)cc1[C@@H](NC(=O)C(F)(F)F)CC2`, for which the T/C (dose: 0.09 mg/kg/injection, schedule: Q01DX009 (ip), vehicle: Klucel (hydroxypropylcellulose) (HPC)) was 121 % of control; the T/C (dose: 0.18 mg/kg/injection, schedule: Q01DX009 (ip), vehicle: Klucel (hydroxypropylcellulose) (HPC)) was 123 % of control; the T/C (dose: 6.0 micrograms/kg/injection, schedule: Q01DX009 (ip), vehicle: Klucel (hydroxypropylcellulose) (HPC)) was 101 % of control; the T/C (dose: 12.0 micrograms/kg/injection, schedule: Q01DX009 (ip), vehicle: Klucel (hydroxypropylcellulose) (HPC)) was 111 % of control; the T/C (dose: 24.0 micrograms/kg/injection, schedule: Q01DX009 (ip), vehicle: Klucel (hydroxypropylcellulose) (HPC)) is 112 % of control; the T/C (dose: 24.38 micrograms/kg/injection, schedule: Q01DX009 (ip), vehicle: Klucel (hydroxypropylcellulose) (HPC)) was 120 % of control. Further, the T/C is, setting by setting: (dose: 48.0 micrograms/kg/injection, schedule: Q01DX009 (ip), vehicle: Klucel (hydroxypropylcellulose) (HPC)) 121 % of control; (dose: 48.75 micrograms/kg/injection, schedule: Q01DX009 (ip), vehicle: Klucel (hydroxypropylcellulose) (HPC)) 120 % of control; (dose: 97.0 micrograms/kg/injection, schedule: Q01DX009 (ip), vehicle: Klucel (hydroxypropylcellulose) (HPC)) 119 % of control; (dose: 97.5 micrograms/kg/injection, schedule: Q01DX009 (ip), vehicle: Klucel (hydroxypropylcellulose) (HPC)) 118 % of control; (dose: 195.0 micrograms/kg/injection, schedule: Q01DX009 (ip), vehicle: Klucel (hydroxypropylcellulose) (HPC)) 122 % of control; (dose: 390.0 micrograms/kg/injection, schedule: Q01DX009 (ip), vehicle: Klucel (hydroxypropylcellulose) (HPC)) 155 % of control.
Regarding `CN(C)c1ccc(C2c3cc4c(cc3OC3(N5CCCC5)CCCCC23)OCO4)cc1` (centres undefined), the T/C (dose: 60.0 mg/kg/injection, schedule: Q01DX005 (ip), vehicle: Klucel (hydroxypropylcellulose) (HPC)) was 95 % of control; the T/C (dose: 120.0 mg/kg/injection, schedule: Q01DX005 (ip), vehicle: Klucel (hydroxypropylcellulose) (HPC)) is 97 % of control; the T/C (dose: 240.0 mg/kg/injection, schedule: Q01DX005 (ip), vehicle: Klucel (hydroxypropylcellulose) (HPC)) was 89 % of control.
Take `Cc1cccc(-n2c(=O)c3[nH]c4ccccc4sc=3c2=O)c1`: the T/C under setting [3] was 104 % of control, the T/C under setting [4] is 107 % of control and the T/C under setting [5] is 92 % of control.
Regarding `N#C/C=C1\NC(=O)CS1`, the T/C was 95 % of control under setting [1]; 100 % of control under setting [2]; 95 % of control (dose: 200.0 mg/kg/injection, schedule: Q01DX009 (ip), vehicle: saline with Tween-80).
On to `COc1ccc2c(c1)CCc1c-2nc(N)nc1-c1nc(N)nc2c1CCc1cc(OC)ccc1-2`, for which the T/C was 100 % of control under setting [3], 100 % of control under setting [4] and 100 % of control under setting [5].
Turning to `Nc1ccc2c(c1)C(O)c1cccc(C(=O)O)c1-2` (centres undefined), the T/C was 96 % of control under setting [3], 101 % of control under setting [4] and 94 % of control under setting [5].
Consider `N#CC1CCCCC1C1(C#N)CCCCC1Cc1nccc2ccccc12` (centres undefined), for which the T/C reads like this: (dose: 100.0 mg/kg/injection, schedule: Q04DX003 (ip), vehicle: saline with Tween-80) 95 % of control; (dose: 200.0 mg/kg/injection, schedule: Q04DX003 (ip), vehicle: saline with Tween-80) 100 % of control; (dose: 400.0 mg/kg/injection, schedule: Q04DX003 (ip), vehicle: saline with Tween-80) 86 % of control.
Turning to `COc1ccc(OC)c(C=C(C(C)=O)C(C)=O)c1`, the T/C is 111 % of control (dose: 25.0 mg/kg/injection, schedule: Q01DX009 (ip), vehicle: other); 105 % of control (dose: 50.0 mg/kg/injection, schedule: Q01DX009 (ip), vehicle: other); 109 % of control (dose: 100.0 mg/kg/injection, schedule: Q01DX009 (ip), vehicle: other); 108 % of control (dose: 200.0 mg/kg/injection, schedule: Q01DX009 (ip), vehicle: other); 115 % of control (dose: 400.0 mg/kg/injection, schedule: Q01DX009 (ip), vehicle: other).
For the molecule `CC(=O)c1ccc[n+](Cc2c(Cl)cccc2Cl)c1`, the T/C is 101 % of control (dose: 6.25 mg/kg/injection, schedule: Q01DX009 (ip), vehicle: saline); 100 % of control and 104 % of control (dose: 12.5 mg/kg/injection, schedule: Q01DX009 (ip), vehicle: saline); 101 % of control and 114 % of control (dose: 25.0 mg/kg/injection, schedule: Q01DX009 (ip), vehicle: saline).
With `O=C1CCS(=O)(=O)C(=O)N1c1ccccc1`, the T/C is 100 % of control (dose: 50.0 mg/kg/injection, schedule: Q01DX009 (ip), vehicle: Klucel (hydroxypropylcellulose) (HPC)); 97 % of control (dose: 100.0 mg/kg/injection, schedule: Q01DX009 (ip), vehicle: Klucel (hydroxypropylcellulose) (HPC)); 87 % of control (dose: 200.0 mg/kg/injection, schedule: Q01DX009 (ip), vehicle: Klucel (hydroxypropylcellulose) (HPC)).
As for `COC1=CC(=O)C(C(c2ccc(OC)cc2)N2CCOCC2)=CC1=O` (centres undefined), the T/C reads like this: (dose: 12.5 mg/kg/injection, schedule: Q01DX005 (ip), vehicle: saline with Tween-80) 109 % of control; (dose: 25.0 mg/kg/injection, schedule: Q01DX005 (ip), vehicle: saline with Tween-80) 109 % of control; under setting [6], 101 % of control and 109 % of control.
In the case of `COc1c(/C=C/C=O)cc2c(c1OC)OCO2`, the T/C reads like this: (dose: 25.0 mg/kg/injection, schedule: Q01DX005 (ip), vehicle: Klucel (hydroxypropylcellulose) (HPC)) 97 % of control; (dose: 50.0 mg/kg/injection, schedule: Q01DX005 (ip), vehicle: Klucel (hydroxypropylcellulose) (HPC)) 97 % of control; (dose: 100.0 mg/kg/injection, schedule: Q01DX005 (ip), vehicle: Klucel (hydroxypropylcellulose) (HPC)) 104 % of control; (dose: 200.0 mg/kg/injection, schedule: Q01DX005 (ip), vehicle: Klucel (hydroxypropylcellulose) (HPC)) 100 % of control.
`O=C(O)C1CSC(c2ccc(O)cc2)N1` (centres undefined): the T/C is 87 % of control (dose: 50.0 mg/kg/injection, schedule: Q01DX009 (ip), vehicle: saline); 88 % of control (dose: 100.0 mg/kg/injection, schedule: Q01DX009 (ip), vehicle: saline); 90 % of control (dose: 200.0 mg/kg/injection, schedule: Q01DX009 (ip), vehicle: saline).
On to `O=C(CBr)Nc1ccc(Cc2ccc(NC(=O)CBr)cc2)cc1`, for which the T/C is 99 % of control (dose: 100.0 mg/kg/injection, schedule: Q01DX001 (ip), vehicle: saline with Tween-80); 93 % of control (dose: 200.0 mg/kg/injection, schedule: Q01DX001 (ip), vehicle: saline with Tween-80); 94 % of control (dose: 400.0 mg/kg/injection, schedule: Q01DX001 (ip), vehicle: saline with Tween-80).
Take `CC(=O)C(C=O)C(C)=O.CC(=O)CC(C)=O.CC(=O)CC(C)=O.[Ru]`: the T/C (dose: 15.0 mg/kg/injection, schedule: Q01DX005 (ip), vehicle: saline with Tween-80) was 100 % of control; the T/C (dose: 30.0 mg/kg/injection, schedule: Q01DX005 (ip), vehicle: saline with Tween-80) is 102 % of control; the T/C under setting [3] was 104 % of control and 109 % of control.
As for `CC1(C)OC[C@@H](N)[C@@H](O)CO1`, the T/C is 104 % of control (dose: 60.0 mg/kg/injection, schedule: Q01DX005 (ip), vehicle: saline); 104 % of control (dose: 120.0 mg/kg/injection, schedule: Q01DX005 (ip), vehicle: saline); 118 % of control (dose: 240.0 mg/kg/injection, schedule: Q01DX005 (ip), vehicle: saline).
Consider `CC1(O)C(=O)OC(CO)C1O` (centres undefined), for which the T/C reads like this: under setting [6], 102 % of control; (dose: 100.0 mg/kg/injection, schedule: Q01DX005 (ip), vehicle: saline with Tween-80) 102 % of control; (dose: 200.0 mg/kg/injection, schedule: Q01DX005 (ip), vehicle: saline with Tween-80) 100 % of control.
